Key:
Assay type in all cases: cell-based, influenza A virus
Conditions in all cases: read-out: Cell Protection Assay EC50 ± SD Comp (1)
A/St. Petersburg/8/2006 = system: A/St. Petersburg/8/2006
A/Port Chalmers/1/73 = system: A/Port Chalmers/1/73
A/NWS/33 = system: A/NWS/33
A/California/07/2009 = system: A/California/07/2009
A/Georgia/20/2006 = system: A/Georgia/20/2006
A/Texas/12/2007 = system: A/Texas/12/2007
A/Puerto Rico/8/34 = system: A/Puerto Rico/8/34
[1] = system: A/California/07/2009 NYMC X-179A
A/Nebraska/1/2006 = system: A/Nebraska/1/2006
A/Texas/48/2009 = system: A/Texas/48/2009
A/Weiss/43 = system: A/Weiss/43
A/Mexico/4108/2009 = system: A/Mexico/4108/2009
A/Wisconsin/67/2005 = system: A/Wisconsin/67/2005
A/Uruguay/716/2007 = system: A/Uruguay/716/2007
A/Virginia/01/2006 = system: A/Virginia/01/2006
A/WS/33 = system: A/WS/33

Q: `O=C(O)[C@H]1C2CCC(CC2)C1Nc1nc(-c2c[nH]c3ncc(F)cc23)ncc1F` (stereo partly shown) [Compound (1)] was tested. Which EC50 (A/St. Petersburg/8/2006) did it give?
A: The EC50 was 0.88 ± 0.69 nM.

Q: And the EC50 (A/Port Chalmers/1/73)?
A: Its EC50 is 0.54 ± 0.11 nM.

Q: And the EC50 (A/NWS/33)?
A: The EC50 was 0.73 ± 0.1 nM.

Q: What about the EC50 (A/California/07/2009) of the same compound?
A: The EC50 was 1.8 ± 1.6 nM.

Q: And the EC50 (A/Georgia/20/2006)?
A: Its EC50 is 2.6 ± 3.8 nM.

Q: What about the EC50 (A/Texas/12/2007) of the same compound?
A: Its EC50 is 0.65 ± 0.22 nM.

Q: What about the EC50 (A/Puerto Rico/8/34) of the same compound?
A: The EC50 was 3.2 ± 1.8 nM.

Q: And the EC50 [1]?
A: Its EC50 is 2.7 ± 1.8 nM.

Q: What about the EC50 (A/Nebraska/1/2006) of the same compound?
A: The EC50 was 2.1 ± 1.3 nM.

Q: And the EC50 (A/Texas/48/2009)?
A: Its EC50 is 2.8 ± 3.2 nM.

Q: And the EC50 (A/Weiss/43)?
A: Its EC50 is 0.31 ± 0.23 nM.

Q: What about the EC50 (A/Mexico/4108/2009) of the same compound?
A: Its EC50 is 2.7 ± 1.8 nM.

Q: What about the EC50 (A/Wisconsin/67/2005) of the same compound?
A: Its EC50 is 1.8 ± 0.24 nM.

Q: And the EC50 (A/Uruguay/716/2007)?
A: Its EC50 is 3.5 ± 5.1 nM.

Q: What about the EC50 (A/Virginia/01/2006) of the same compound?
A: The EC50 was 0.42 ± 0.24 nM.

Q: What about the EC50 (A/WS/33) of the same compound?
A: Its EC50 is 3.2 ± 4.3 nM.

— patent US9771361B2, “Inhibitors of influenza viruses replication” (priority 2013, dated 2017)
